The test system of one series is MV-4-11 cells. The series is described as follows: MV-4-11 cell viability assay, CCK-8. Format: cell-based. The protocol: MV-4-11 cells were obtained from American Type Culture Collection (ATCC). […]
The effect of representative Compounds of the Disclosure on cell viability was determined using Cell Counting Kit-8 (CCK-8) assay according to the manufacturer's instructions. 95 μL of MV-4-11 cell suspension (20000 cells/well) in culture medium were seeded into 96-well plates and cultured 4 hrs. Each tested compound was serially diluted in DMSO, then 5 μL of the compound or DMSO was diluted in 95 μL medium once more. At last, 5 μL of the compound dilution was added to the corresponding well of the cell plate. After the addition of the tested compound, the cells were incubated at 37° C. in an atmosphere of 5% CO2 for 24 hrs. At the end, 10 μL of CCK-8 solution was added to each well of the plate and incubated for 1-4 hrs. The plates were read at 450 nm on the microplate reader (BioTek Synergy 1MF). The readings were normalized to the vehicle cells, and the IC50 was calculated by nonlinear regression analysis using GraphPad Prism 6 software.

The subject of the next series is OPM-2 cells. Kind of series: Cell viability assay (OPM-2 cells), CCK-8. The following applies: 5% FBS. Format: cell-based. An outline of the steps:
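OPM-2 myeloma cells (20000/well) incubated with serially diluted compound for 24 h at 37 °C, 5% CO2. Viability read by CCK-8 (4 h) absorbance at 450 nm, normalised to vehicle; IC50 from nonlinear regression.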

In series [1] the target is Mcl-1 protein (residues 171-323) (Homo sapiens (Human), UniProt Q07820). Kind of series: Inhibition of Mcl-1 by fluorescence polarization (FP) competitive binding assay with FAM-Bid tracer. The following applies: 2 nM FAM-Bid, 20 nM Mcl-1, 30 min, read-out: Mc1-1 (FP). An outline of the steps: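 Competitive FP binding of compounds against FAM-Bid tracer (final 2 nM) on Mcl-1 (final 20 nM) in PBS with 0.01% BGG and 0.01% Triton X-100, 5% final DMSO.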
For orientation: Polarisation of emitted light reports the rotation of a fluorescent probe.

The subject of another series is NCI-H929 cells. Kind of series: Cell viability assay (NCI-H929 cells), CCK-8. It counts as cell-based. Particulars: 5% FBS. An outline of the steps:
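NCI-H929 cells (20000/well) exposed to serially diluted compounds for 24 h at 37 °C, 5% CO2. Viability by CCK-8, absorbance at 450 nm after 1-4 h, normalized to vehicle-treated cells. IC50 by nonlinear regression.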

Series [2] in a line: Microsome clearance assay, mouse. Format: in vitro ADME. The following applies: 0.5 mg/ml protein, 1 mM NADPH, 60 minutes; for Mouse Liver Microsome Clint (μL/min/mg protein): mouse liver microsomes, 5 μM; for microsomal CLint at 5 μM: male, CD-1, mouse, pooled liver microsomes, pH 7.4, mouse liver microsomes, read-out: Mouse Liver Microsome Clint (μL/min/mg protein). An outline of the steps:
(§1)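 Pooled liver microsomes (human, male Wistar rat, male CD-1 mouse) at 0.5 mg/ml protein in 0.1M sodium phosphate pH 7.4 with 5 μM test compound and 1 mM NADPH, incubated 60 minutes. Reactions quenched in ice-cold methanol; supernatant analysed by LC/MS/MS (electrospray).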

Series [3] in a line: Microsome clearance assay, rat. Particulars: 0.5 mg/ml protein, 1 mM NADPH, 60 minutes; for Rat Liver Microsome Clint (μL/min/mg protein): rat liver microsomes, 5 μM; for microsomal CLint at 5 μM: male, Wister, rat, pooled liver microsomes, pH 7.4, rat liver microsomes, read-out: Rat Liver Microsome Clint (μL/min/mg protein). Format: in vitro ADME. Summed up:
as §1
In general terms: Liver microsomes are a subcellular fraction often used to study metabolism.

The nature of series [4]: Microsome clearance assay, human. The following applies: 0.5 mg/ml protein, 1 mM NADPH, 60 minutes; for Human Liver Microsome Clint (μL/min/mg protein): human liver microsomes, 5 μM; for microsomal CLint at 5 μM: human, pooled liver microsomes, pH 7.4, human liver microsomes, read-out: Human Liver Microsome Clint (μL/min/mg protein). It counts as in vitro ADME. An outline of the steps: as §1

A short description of series [5]: Kinetic solubility assay in PBS buffer. It counts as physicochemical. The following applies: for solubility: PBS buffer, pH 6.5, aqueous buffer, thermodynamic from solid, read-out: Solubility (pH 6.5, μg/mL). As to the method:
Representative Compounds of the Disclosure were tested in a kinetic solubility assay in PBS buffer. PBS buffer was prepared by dissolving 4.86 g of potassium dihydrogen phosphate and 5.09 g of disodium hydrogen phosphate dodecahydrate in 1 L of ultrapure water (final pH 6.5). 0.5 mg of test sample was dissolved in 1 mL of methanol and the stock solution was transferred into 2 mL EP tube, and evaporated at 50° C. for 3 h. To the tube was added 1 mL of PBS buffer and the mixture was stirred and shaken for 1-2 h. The solution was allowed to stand overnight and then filtered before HPLC analysis. Another 1.5 mg of the sample was dissolved in 3 mL of methanol to prepare a calibration curve with a series of concentration range of 5-500 μM. The solubility of each sample was determined by the measured peak area in HPLC.

[6] abbreviates: Homo sapiens, MV4-11, 24 h, read-out: MV-4-11 IC50 (5% FBS, nM), MV-4-11 cells, 5% FBS, 24 hrs, CCK-8.
Setting [7] is: read-out: MV-4-11 IC50 (5% FBS), MV-4-11 cells, 5% FBS, 24 hrs, CCK-8.

These results are taken from patent publication US11691989B2, “Macrocyclic indoles as Mcl-1 inhibitors” (ASCENTAGE PHARMA (SUZHOU) CO., LTD., priority 2018, dated 2023).

Values after ≈ are worked out from the molar mass of the structure shown. Like-named read-outs stand apart in the source and are kept apart here.

Mcl-1 protein (residues 171-323), sequence (Q07820 171-323): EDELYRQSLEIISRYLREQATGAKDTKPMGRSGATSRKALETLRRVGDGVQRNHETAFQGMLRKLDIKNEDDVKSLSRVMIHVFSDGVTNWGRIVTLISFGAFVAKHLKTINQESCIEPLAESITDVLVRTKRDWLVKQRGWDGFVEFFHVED

On to `Cc1c(C(=O)O)n2c3ccc(C#N)c(c13)-c1c(nn(C)c1C)CSCc1cc(n(C)n1)CSc1cc(c3ccc(F)cc3c1)OCCC2` [Cpd. No. 20, (Z)-1^5-cyano-9^6-fluoro-1^3,2^1,2^5,6^1-tetramethyl-1^1H-1,2^1H,6^1H-10-oxa-4,8-dithia-1(4,1)-indola-2(4,3),6(3,5)-dipyrazola-9(3,1)-naphthalenacyclotridecaphane-1^2-carboxylic acid], for which the IC50 stood at 45 nM with MV-4-11 cells (setting [6]); 613 nM with OPM-2 cells (Homo sapiens, OPM-2, 24 h); 14 nM in series [1]; 611 nM in the series with NCI-H929 cells (Homo sapiens, NCI-H929, 24 h).
For `Cc1c(C(=O)O)n2c3ccc(Cl)c(c13)-c1c(nn(C)c1C)CSCc1cc(n(C)n1)CSc1cc(c3ccc(F)cc3c1)OCCC2` [Cpd. No. 14, (Z)-1^5-chloro-9^6-fluoro-1^3,2^1,2^5,6^1-tetramethyl-1^1H,2^1H,6^1E-10-oxa-4,8-dithia-1(4,1)-indola-2(4,3),6(3,5)-dipyrazola-9(3,1)-naphthalenacyclotridecaphane-1^2-carboxylic acid], the IC50 was 28 nM in the series on MV-4-11 cells (setting [7]), 52 nM with OPM-2 cells (24 hours), 19 nM in series [1] and 28 nM in the series on NCI-H929 cells (24 hrs). Further, the “Mouse Liver Microsome Clint (μL/min/mg protein)” value (“Mouse Liver Microsome Clint” below) in series [2] was determined as 28.6 μL/min/mg protein. Also, in series [3], the “Rat Liver Microsome Clint (μL/min/mg protein)” value (from here on “Rat Liver Microsome Clint”) was 27.2 μL/min/mg protein. In addition, the “Human Liver Microsome Clint (μL/min/mg protein)” value (“Human Liver Microsome Clint” for short) in series [4] was 5.0 μL/min/mg protein. Moreover, the solubility in series [5] is 10 µg/mL (≈ 14.5 µM).
Turning to `Cc1c(C(=O)O)n2c3ccc(Cl)c(c13)-c1c(nn(C)c1C)CSCc1cc(n(C)n1)CSc1cc(c3ccccc3c1)OCCC2` (atropisomer, axis not shown) [Cpd. No. 6, (R)-(Z)-1^5-chloro-1^3,2^1,2^5,6^1-tetramethyl-1^1H,2^1H,6^1H-10-oxa-4,8-dithia-1(4,1)-indola-2(4,3), 6(3,5)-dipyrazola-9(3,1)-naphthalenacyclotridecaphane-1^2-carboxylic acid], the IC50 with MV-4-11 cells (setting [7]) was found to be 29 nM; with OPM-2 cells (24 hours), 136 nM; in series [1], 9 nM; in the series on NCI-H929 cells (24 hrs), 39 nM. In addition, the “Mouse Liver Microsome Clint” value in series [2] amounted to 23.6 μL/min/mg protein. For the same compound, the “Rat Liver Microsome Clint” value in series [3] came out at 21.0 μL/min/mg protein. Moreover, the “Human Liver Microsome Clint” value in series [4] is recorded as less than 2.8 μL/min/mg protein.
With `Cc1c(C(=O)O)n2c3ccc(Cl)c(c13)-c1c(nn(C)c1C)CSCc1cc(n(C)n1)CSc1cc(c3ccc(F)cc3c1)OCCC2` (atropisomer, axis not shown) [Cpd. No. 15, (R)-(Z)-1^5-chloro-9^6-fluoro-1^3,2^1,2^5,6^1-tetramethyl-1^1H,2^1H,6^1E-10-oxa-4,8-dithia-1(4,1)-indola-2(4,3),6(3,5)-dipyrazola-9(3,1)-naphthalenacyclotridecaphane-1^2-carboxylic acid], the IC50 came out at 5.4 nM with MV-4-11 cells (setting [7]), 52 nM in the series with OPM-2 cells (24 hours), 2 nM in series [1] and 19 nM with NCI-H929 cells (24 hrs). Further, the “Mouse Liver Microsome Clint” value in series [2] is listed as 28.0 μL/min/mg protein. The “Rat Liver Microsome Clint” value in series [3] is listed as 19.6 μL/min/mg protein. In addition, in series [4], the “Human Liver Microsome Clint” value is listed as less than 2.8 μL/min/mg protein.
Take `Cc1c(C(=O)O)n2c3ccc(Cl)c(c13)-c1c(nn(C)c1C(F)F)CSCc1cc(n(C)n1)CSc1cc(c3ccc(F)cc3c1)OCCC2` [Cpd. No. 18, (Z)-1^5-chloro-2^5-(difluoromethyl)-9^6-fluoro-1^3,2^1,6^1-trimethyl-1^1H,2^1H,6^1H-10-oxa-4,8-dithia-1(4,1)-indola-2(4,3),6(3,5)-dipyrazola-9(3,1)-naphthalenacyclotridecaphane-1^2-carboxylic acid]: the IC50 in the series on MV-4-11 cells (setting [6]) came to 93 nM; with OPM-2 cells (Homo sapiens, OPM-2, 24 h), 189 nM; in series [1] it was 15 nM; with NCI-H929 cells (Homo sapiens, NCI-H929, 24 h), 63 nM. Moreover, the microsomal CLint at 5 μM in series [2] was 42 µL/min/mg; in series [3], 22.6 µL/min/mg; in series [4] it was 22.2 µL/min/mg. In addition, the solubility in series [5] is less than 1 µg/mL.
As to `Cc1c2c(nn1C)CSCc1cc(n(C)n1)CSc1cc(c3ccccc3c1)OCCCc1c(C(=O)O)n(C)c3c-2c(Cl)ccc13` [AZD5991, (Z)-16-chloro-11,21,25,61-tetramethyl-11H,21H,61H-10-oxa-4,8-dithia-1(7,3)-indola-2(4,3),6(3,5)-dipyrazola-9(3,1)-naphthalenacyclotridecaphane-12-carboxylic acid, reference compound], the IC50 in the series on MV-4-11 cells (setting [6]) was 29 nM; in the series with OPM-2 cells (Homo sapiens, OPM-2, 24 h), 148 nM; with NCI-H929 cells (Homo sapiens, NCI-H929, 24 h), 47 nM. The microsomal CLint at 5 μM is 20.8 µL/min/mg in series [2], 16.6 µL/min/mg in series [3] and less than 2.8 µL/min/mg in series [4]. The solubility in series [5] is less than 1 µg/mL.
As for `Cc1c(C(=O)O)n2c3ccc(Cl)c(c13)-c1c(nn(C)c1C)CSCc1cc(n(C)n1)CSc1cc(c3ccccc3c1)OCCC2` [Cpd. No. 5, (Z)-1^5-chloro-1^3,2^1,2^5,6^1-tetramethyl-1^1H,2^1H,6^1H-10-oxa-4,8-dithia-1(4,1)-indola-2(4,3), 6(3,5)-dipyrazola-9(3,1)-naphthalenacyclotridecaphane-1^2-carboxylic acid], the IC50 in the series with MV-4-11 cells (setting [6]) came to 43 nM; in the series with OPM-2 cells (24 hours), 192 nM; in series [1], 17 nM; in the series on NCI-H929 cells (24 hrs), 33 nM. For the same compound, the “Mouse Liver Microsome Clint” value in series [2] is 48.4 μL/min/mg protein. In series [3], the “Rat Liver Microsome Clint” value came out at 58.8 μL/min/mg protein. In series [4], the “Human Liver Microsome Clint” value worked out at 15.8 μL/min/mg protein. In addition, in series [5] (PBS buffer pH 6.5), the “Solubility (pH 6.5, μg/mL)” value worked out at 2 μg/mL.
